This note sets out measurements from ChEMBL document CHEMBL4715750, “Synthesis and in vitro, ex-vivo and in vivo activity of hybrid compounds linking a potent ROS and RNS scavenger activity with diverse substrates addressed to pass across the blood-brain barrier” (Eur J Med Chem, 2016).

Data set [1] is described as follows: Antioxidant activity assessed as DPPH radical scavenging activity incubated for 60 mins in absence of light. The data set is classed as functional.
A short description of data set [2]: Permeability of the compound at pH 7.4 by PAMPA-BBB assay. The following applies: read-out: permeability. It is filed as ADME. In general terms: The PAMPA barrier holds no transporters, so it reflects passive diffusion.
For data set [3], the system named is SH-SY5Y. In words: Antioxidant activity in human SH-SY5Y cells assessed as inhibition of H2O2-induced DCFH oxidation measured after 1 hr by DCFH-DA dye based fluorescence assay. The data set is classed as functional, cell-based.
A short description of data set [4]: Cytotoxicity against human SH-SY5Y cells assessed as cell viability at 100 uM measured after 2 hrs by MTT assay relative to control. The following applies: read-out: Activity. It is filed as cell-based. Background: Formazan colour is commonly taken as a measure of viable cells.
Data set [5] can be described thus: Cytotoxicity against human SH-SY5Y cells assessed as cell viability at 50 uM measured after 2 hrs by MTT assay relative to control. It is filed as cell-based. The following applies: read-out: Activity.
Data set [6] in a line: Cytotoxicity against human SH-SY5Y cells assessed as cell viability at 25 uM measured after 2 hrs by MTT assay relative to control. The data set is classed as cell-based. The following applies: read-out: Activity.
Data set [7] is described as follows: Cytotoxicity against human SH-SY5Y cells assessed as cell viability at 12.5 uM measured after 2 hrs by MTT assay relative to control. The following applies: read-out: Activity. It is filed as cell-based.
A short description of data set [8]: Cytotoxicity against human SH-SY5Y cells assessed as cell viability at 6.3 uM measured after 2 hrs by MTT assay relative to control. The data set is classed as cell-based. The following applies: read-out: Activity.
A short description of data set [9]: Cytotoxicity against human SH-SY5Y cells assessed as cell viability at 3.1 uM measured after 2 hrs by MTT assay relative to control. It is filed as cell-based. The following applies: read-out: Activity.
Data set [10] is described as follows: Cytotoxicity against human SH-SY5Y cells assessed as cell viability at 1.6 uM measured after 2 hrs by MTT assay relative to control. The data set is classed as cell-based. The following applies: read-out: Activity.
Data set [11] can be described thus: Cytotoxicity against human SH-SY5Y cells assessed as cell viability at 0.8 uM measured after 2 hrs by MTT assay relative to control. The data set is classed as cell-based. The following applies: read-out: Activity.
Data set [12] can be described thus: Cytotoxicity against human SH-SY5Y cells assessed as cell viability at 100 uM measured after 24 hrs by MTT assay relative to control. It is filed as cell-based. The following applies: read-out: Activity.
A short description of data set [13]: Cytotoxicity against human SH-SY5Y cells assessed as cell viability at 50 uM measured after 24 hrs by MTT assay relative to control. The data set is classed as cell-based. The following applies: read-out: Activity.
Data set [14] can be described thus: Cytotoxicity against human SH-SY5Y cells assessed as cell viability at 25 uM measured after 24 hrs by MTT assay relative to control. It is filed as cell-based. The following applies: read-out: Activity.
A short description of data set [15]: Cytotoxicity against human SH-SY5Y cells assessed as cell viability at 12.5 uM measured after 24 hrs by MTT assay relative to control. The data set is classed as cell-based. The following applies: read-out: Activity.
Data set [16] can be described thus: Cytotoxicity against human SH-SY5Y cells assessed as cell viability at 6.3 uM measured after 24 hrs by MTT assay relative to control. The data set is classed as cell-based. The following applies: read-out: Activity.
Data set [17] can be described thus: Cytotoxicity against human SH-SY5Y cells assessed as cell viability at 3.1 uM measured after 24 hrs by MTT assay relative to control. It is filed as cell-based. The following applies: read-out: Activity.
The nature of data set [18]: Cytotoxicity against human SH-SY5Y cells assessed as cell viability at 1.6 uM measured after 24 hrs by MTT assay relative to control. The data set is classed as cell-based. The following applies: read-out: Activity.
Data set [19] can be described thus: Cytotoxicity against human SH-SY5Y cells assessed as cell viability at 0.8 uM measured after 24 hrs by MTT assay relative to control. The following applies: read-out: Activity. It is filed as cell-based.
In data set [20] the test system is SH-SY5Y. The data set is described as follows: Cytoprotective activity against DMSO-induced toxicity in human SH-SY5Y cells. The data set is classed as functional, cell-based.
Data set [21] is described as follows: Drug concentration in Sprague-Dawley rat plasma at 0.2 mmol/Kg, ip measured after 1 hr by HPLC based fluorimetric analysis. The data set is classed as ADME, organism-based.

SMILES strings stand for the structures. The source made the active and inactive calls. The rule behind the calls is not given here.

Consider `COc1cc2c(cc1O)CCC(C)(CC(=O)N[C@@H](C)C(=O)O)O2` (some centres not stated), for which, in data set [1], the concentration for half-maximal inhibition (IC50) (commonly the concentration that inhibits the measured activity by half) turned out to be 14.7 µM. Moreover, the Papp in [2] stood at 0.06 ×10⁻⁶ cm/s. For the same molecule, in [3], the Activity result was “Dose-dependent effect” and the IC50 was found to be 92.6 µM. In addition, the viability at 2 h, 100 µM in [4] was 70.1%. Also, in data set [5], the viability at 2 h, 50 µM came to 86.6%. Further, the viability at 2 h, 25 µM in data set [6] turned out to be 89.5%. For the same molecule, the viability at 2 h, 12.5 µM in [7] amounted to 85%. Besides, the viability at 2 h, 6.3 µM in data set [8] turned out to be 86.4%. Further, in [9], the viability at 2 h, 3.1 µM turned out to be 79.5%. The viability at 2 h, 1.6 µM in [10] was 86.9%. In addition, the viability at 2 h, 0.8 µM in [11] stood at 87.6%. The viability at 24 h, 100 µM in [12] came out at 68.5%. In addition, the viability at 24 h, 50 µM in data set [13] came out at 100%. For the same molecule, the viability at 24 h, 25 µM in data set [14] came out at 100%. In [15], the viability at 24 h, 12.5 µM came to 100%. Besides, the viability at 24 h, 6.3 µM in data set [16] was 94.6%. Besides, the viability at 24 h, 3.1 µM in data set [17] stood at 100%. In data set [18], the viability at 24 h, 1.6 µM is 100%. Moreover, in data set [19], the viability at 24 h, 0.8 µM stood at 100%. In [20], the outcome was Active.
As to `COc1cc2c(cc1O)CCC(C)(CC(=O)N[C@@H](Cc1c[nH]c3ccccc13)C(=O)O)O2` (some centres not stated), in data set [1], the IC50 worked out at 15.5 µM. Moreover, the Papp in data set [2] was determined as 1.18 ×10⁻⁶ cm/s. Also, in data set [3], the Activity result is “Dose-dependent effect” and the IC50 is greater than 200 µM. In addition, in data set [4], the viability at 2 h, 100 µM stood at 95.4%. Moreover, in data set [5], the viability at 2 h, 50 µM was 95.2%. Besides, the viability at 2 h, 25 µM in data set [6] was 100%. Moreover, in data set [7], the viability at 2 h, 12.5 µM worked out at 100%. The viability at 2 h, 6.3 µM in data set [8] was found to be 100%. Further, the viability at 2 h, 3.1 µM in data set [9] is 97.9%. Moreover, in [10], the viability at 2 h, 1.6 µM is 97.2%. The viability at 2 h, 0.8 µM in [11] came to 94.8%. For the same molecule, in data set [12], the viability at 24 h, 100 µM was 65.9%. Moreover, the viability at 24 h, 50 µM in data set [13] amounted to 92.8%. The viability at 24 h, 25 µM in data set [14] came to 90%. Moreover, in [15], the viability at 24 h, 12.5 µM was 91.2%. The viability at 24 h, 6.3 µM in data set [16] was determined as 94.9%. Further, the viability at 24 h, 3.1 µM in data set [17] is 100%. Besides, the viability at 24 h, 1.6 µM in data set [18] stood at 96%. The viability at 24 h, 0.8 µM in data set [19] stood at 94.6%. Besides, in data set [20], the result was Active.
As for `COc1cc2c(cc1O)CCC(C)(CC(=O)N[C@@H](Cc1ccc(O)cc1)C(=O)O)O2` (some centres not stated), the IC50 in data set [1] stood at 19.6 µM; in data set [3], 50 µM. Besides, the Activity entry in [3] was “Dose-dependent effect”. In addition, in data set [4], the viability at 2 h, 100 µM is 75.8%. For the same molecule, the viability at 2 h, 50 µM in data set [5] worked out at 95.7%. Besides, the viability at 2 h, 25 µM in data set [6] worked out at 95.5%. The viability at 2 h, 12.5 µM in data set [7] came out at 92.5%. Besides, in data set [8], the viability at 2 h, 6.3 µM worked out at 99.7%. In data set [9], the viability at 2 h, 3.1 µM was found to be 100%. For the same molecule, in [10], the viability at 2 h, 1.6 µM worked out at 94.5%. Besides, in [11], the viability at 2 h, 0.8 µM turned out to be 92.2%. The viability at 24 h, 100 µM in data set [12] amounted to 67.5%. Besides, in data set [13], the viability at 24 h, 50 µM is 78.6%. Further, in data set [14], the viability at 24 h, 25 µM came out at 82.7%. For the same molecule, in data set [15], the viability at 24 h, 12.5 µM came out at 81.6%. Moreover, in data set [16], the viability at 24 h, 6.3 µM worked out at 83.3%. Further, the viability at 24 h, 3.1 µM in [17] amounted to 89.9%. Further, in [18], the viability at 24 h, 1.6 µM stood at 89.5%. The viability at 24 h, 0.8 µM in data set [19] turned out to be 79.7%. The concentration at 1 h in [21] came out at 7 µM.
